In ChEMBL document CHEMBL3044888, “Fungicidal activity of indole derivatives against some plant pathogenic fungi” (J Pestic Sci, 2010):
Values after ≈ are worked out from the molar mass of the structure shown.

How the values were obtained:
Format in all cases: functional, organism-based
Rhizoctonia solani = assay: Fungicidal activity against Rhizoctonia solani assessed as inhibition of hyphal growth by radial growth test
Fusarium culmorum = assay: Fungicidal activity against Fusarium culmorum assessed as inhibition of hyphal growth by radial growth test
Macrophomina phaseolina = assay: Fungicidal activity against Macrophomina phaseoli assessed as inhibition of hyphal growth by radial growth test
[1] = tested on: Globisporangium debaryanum; assay: Fungicidal activity against Pythium debaryanum assessed as inhibition of hyphal growth by radial growth test

SMILES	IC50 (Rhizoctonia solani) [µg/mL]	IC50 (Fusarium culmorum) [µg/mL]	IC50 (Macrophomina phaseolina) [µg/mL]	IC50 [1] [µg/mL]
O=C(O)Cc1c[nH]c2ccccc12 [INDOLE-3-ACETIC ACID]	1010 (≈ 5760 µM)	420 (≈ 2400 µM)	807 (≈ 4610 µM)	301 (≈ 1720 µM)
O=C(O)CCCc1c[nH]c2ccccc12	644 (≈ 3170 µM)	576 (≈ 2830 µM)	699 (≈ 3440 µM)	249 (≈ 1230 µM)
O=C(O)Cc1cn(C(=O)c2ccccc2)c2ccccc12	1240 (≈ 4450 µM)	523 (≈ 1870 µM)	572 (≈ 2050 µM)	171 (≈ 612 µM)
CC(=O)n1cc(CCCC(=O)O)c2ccccc21	117 (≈ 477 µM)	26.6 (≈ 108 µM)	59 (≈ 241 µM)	19 (≈ 77.5 µM)
COCC(=O)N(c1c(C)cccc1C)C(C)C(=O)OC (stereo not drawn) [METALAXYL]	231 (≈ 827 µM)	192 (≈ 687 µM)	173 (≈ 619 µM)	211 (≈ 755 µM)
O=C(O)CCCc1cn(C(=O)c2ccccc2)c2ccccc12	663 (≈ 2160 µM)	513 (≈ 1670 µM)	448 (≈ 1460 µM)	488 (≈ 1590 µM)
O=C(c1ccccc1)n1c(-c2ccccc2)cc2ccccc21	122 (≈ 411 µM)	99.9 (≈ 336 µM)	355 (≈ 1190 µM)	81 (≈ 272 µM)
